The test addresses T1, RecA1 (Myxococcus xanthus, UniProt Q1DCC5).
T1 construct: gene recA; full-length gene in pET15b, expressed in E. coli BL21(DE3), Ni-NTA purified
T1 sequence (Q1DCC5 1-342): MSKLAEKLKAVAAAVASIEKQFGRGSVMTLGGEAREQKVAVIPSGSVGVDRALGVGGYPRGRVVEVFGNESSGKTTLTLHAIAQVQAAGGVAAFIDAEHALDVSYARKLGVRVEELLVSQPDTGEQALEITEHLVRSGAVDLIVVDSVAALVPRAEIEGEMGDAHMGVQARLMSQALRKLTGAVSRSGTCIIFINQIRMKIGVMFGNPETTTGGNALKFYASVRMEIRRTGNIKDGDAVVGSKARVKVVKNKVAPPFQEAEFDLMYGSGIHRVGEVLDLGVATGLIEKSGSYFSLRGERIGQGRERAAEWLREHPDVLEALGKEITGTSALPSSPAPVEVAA
Put plainly: ATPase assay, released inorganic phosphate (kit). Format: biochemical. Particulars: 3 mM ATP, 5 mM MgCl2, 1 mM CaCl2, pH 7.4, 32 °C; with or without ssDNA or dsDNA.

Regarding `Nc1ncnc2c1ncn2[C@@H]1O[C@H](COP(=O)(O)OP(=O)(O)OP(=O)(O)O)[C@@H](O)[C@H]1O` [ATP], the “ATPase assay, released inorganic phosphate (kit)” value was “RecA1 and RecA2 both exhibited low ATPase activities”.

Source of the values: article PMC7029660, “Functional Division Between the RecA1 and RecA2 Proteins in Myxococcus xanthus” (Frontiers in Microbiology, 2020).
